From ChEMBL document CHEMBL3885881, “DrugMatrix”

Species on record: Rattus norvegicus
Type: toxicity, organism-based, Sprague-Dawley
Conditions: in vivo, ip, route intraperitoneal, vehicle 100 % SALINE; for ABSOLUTE EOSINOPHIL / ABSOLUTE LYMPHOCYTE / ABSOLUTE MONOCYTE / ABSOLUTE SEGMENTED NEUTROPHIL / BASOPHIL / EOSINOPHIL / ERYTHROCYTE COUNT / HEMATOCRIT / HEMOGLOBIN / LEUKOCYTE COUNT / LYMPHOCYTE / MEAN CORPUSCULAR HEMOGLOBIN / MEAN CORPUSCULAR HEMOGLOBIN CONCENTRATION / MEAN CORPUSCULAR VOLUME / MONOCYTE / NEUTROPHIL / NUCLEATED RED BLOOD CELLS / PLATELET COUNT: tissue Blood; for ALANINE AMINOTRANSFERASE / ALBUMIN / ALKALINE PHOSPHATASE / ASPARTATE AMINOTRANSFERASE / BLOOD UREA NITROGEN / CARBON DIOXIDE / CHLORIDE / CHOLESTEROL / CREATINE PHOSPHOKINASE / CREATININE / GLUCOSE / LACTATE DEHYDROGENASE / LIPASE / PHOSPHORUS / POTASSIUM / SODIUM / TOTAL BILIRUBIN / TOTAL PROTEIN / URIC ACID: tissue Plasma
[1] = 0 mg/kg, 6 h, vehicle control, dose level Control, time 0.25 day
[2] = 0 mg/kg, 24 h, vehicle control, dose level Control, time 1 day
[3] = 16 mg/kg, 6 h, dose level Low, time 0.25 day

Description: DrugMatrix - Regimen: Single

## C=CCO [ALLYL ALCOHOL]
[1]
  ABSOLUTE EOSINOPHIL: 63 CELLS/uL
  ABSOLUTE LYMPHOCYTE: 12886.67 CELLS/uL
  ABSOLUTE MONOCYTE: 302.5 CELLS/uL
  ABSOLUTE SEGMENTED NEUTROPHIL: 2997.83 CELLS/uL
  BASOPHIL: 0%
  EOSINOPHIL: 0.33%
  ERYTHROCYTE COUNT: 5.45 x10E6/uL
  HEMATOCRIT: 34.93%
  HEMOGLOBIN: 13.88 G/DL
  LEUKOCYTE COUNT: 16.25 x10E3/uL
  LYMPHOCYTE: 79.17%
  MEAN CORPUSCULAR HEMOGLOBIN: 25.48 pg
  MEAN CORPUSCULAR HEMOGLOBIN CONCENTRATION: 39.77 G/DL
  MEAN CORPUSCULAR VOLUME: 64.13 fL
  MONOCYTE: 1.83%
  NEUTROPHIL: 18.67%
  NUCLEATED RED BLOOD CELLS: 0 /100WBC
  PLATELET COUNT: 1184.67 x10E3/uL
  ALANINE AMINOTRANSFERASE: 35 u/L
  ALBUMIN: 4.25 G/DL
  ALKALINE PHOSPHATASE: 281.83 u/L
  ASPARTATE AMINOTRANSFERASE: 79.5 u/L
  BLOOD UREA NITROGEN: 11.67 mg/dL
  CARBON DIOXIDE: 27 mmol/L
  CHLORIDE: 100.33 MEQ/L
  CHOLESTEROL: 60.67 mg/dL
  CREATINE PHOSPHOKINASE: 275.5 u/L
  CREATININE: 0.13 mg/dL
  GLUCOSE: 162.5 mg/dL
  LACTATE DEHYDROGENASE: 258.83 u/L
  LIPASE: 9.33 u/L
  PHOSPHORUS: 11.42 mg/dL
  POTASSIUM: 6.16 MEQ/L
  SODIUM: 145.08 MEQ/L
  TOTAL BILIRUBIN: 0.18 mg/dL
  TOTAL PROTEIN: 5.73 G/DL
  URIC ACID: 1.58 mg/dL
[2]
  ABSOLUTE EOSINOPHIL: 18.5 CELLS/uL
  ABSOLUTE LYMPHOCYTE: 12859.83 CELLS/uL
  ABSOLUTE MONOCYTE: 190.83 CELLS/uL
  ABSOLUTE SEGMENTED NEUTROPHIL: 1230.83 CELLS/uL
  BASOPHIL: 0%
  EOSINOPHIL: 0.17%
  ERYTHROCYTE COUNT: 5.2 x10E6/uL
  HEMATOCRIT: 33.25%
  HEMOGLOBIN: 13.37 G/DL
  LEUKOCYTE COUNT: 14.3 x10E3/uL
  LYMPHOCYTE: 89.83%
  MEAN CORPUSCULAR HEMOGLOBIN: 25.73 pg
  MEAN CORPUSCULAR HEMOGLOBIN CONCENTRATION: 40.25 G/DL
  MEAN CORPUSCULAR VOLUME: 64 fL
  MONOCYTE: 1.33%
  NEUTROPHIL: 8.67%
  NUCLEATED RED BLOOD CELLS: 0 /100WBC
  PLATELET COUNT: 1075.5 x10E3/uL
  ALANINE AMINOTRANSFERASE: 54.17 u/L
  ALBUMIN: 4.25 G/DL
  ALKALINE PHOSPHATASE: 280.67 u/L
  ASPARTATE AMINOTRANSFERASE: 84.67 u/L
  BLOOD UREA NITROGEN: 13.33 mg/dL
  CARBON DIOXIDE: 26.33 mmol/L
  CHLORIDE: 99.67 MEQ/L
  CHOLESTEROL: 72 mg/dL
  CREATINE PHOSPHOKINASE: 620 u/L
  CREATININE: 0.17 mg/dL
  GLUCOSE: 169.17 mg/dL
  LACTATE DEHYDROGENASE: 189.17 u/L
  LIPASE: 9.67 u/L
  PHOSPHORUS: 10.57 mg/dL
  POTASSIUM: 5.16 MEQ/L
  SODIUM: 142.2 MEQ/L
  TOTAL BILIRUBIN: 0.18 mg/dL
  TOTAL PROTEIN: 5.78 G/DL
  URIC ACID: 1.25 mg/dL
[3]
  ABSOLUTE EOSINOPHIL: 48.67 CELLS/uL
  ABSOLUTE LYMPHOCYTE: 11033.33 CELLS/uL
  ABSOLUTE MONOCYTE: 230.5 CELLS/uL
  ABSOLUTE SEGMENTED NEUTROPHIL: 2270.83 CELLS/uL
  BASOPHIL: 0%
  EOSINOPHIL: 0.33%
  ERYTHROCYTE COUNT: 5.38 x10E6/uL
  HEMATOCRIT: 34.4%
  HEMOGLOBIN: 13.45 G/DL
  LEUKOCYTE COUNT: 13.58 x10E3/uL
  LYMPHOCYTE: 81.17%
  MEAN CORPUSCULAR HEMOGLOBIN: 25.12 pg
  MEAN CORPUSCULAR HEMOGLOBIN CONCENTRATION: 39.12 G/DL
  MEAN CORPUSCULAR VOLUME: 64.18 fL
  MONOCYTE: 1.67%
  NEUTROPHIL: 16.83%
  NUCLEATED RED BLOOD CELLS: 0 /100WBC
  PLATELET COUNT: 997.5 x10E3/uL
  ALANINE AMINOTRANSFERASE: 66.83 u/L
  ALBUMIN: 4.27 G/DL
  ALKALINE PHOSPHATASE: 267.67 u/L
  ASPARTATE AMINOTRANSFERASE: 90 u/L
  BLOOD UREA NITROGEN: 9.33 mg/dL
  CARBON DIOXIDE: 28.5 mmol/L
  CHLORIDE: 100.17 MEQ/L
  CHOLESTEROL: 68 mg/dL
  CREATINE PHOSPHOKINASE: 295 u/L
  CREATININE: 0.14 mg/dL
  GLUCOSE: 153.5 mg/dL
  LACTATE DEHYDROGENASE: 198.83 u/L
  LIPASE: 11.83 u/L
  PHOSPHORUS: 10.27 mg/dL
  POTASSIUM: 5.27 MEQ/L
  SODIUM: 144.05 MEQ/L
  TOTAL BILIRUBIN: 0.1 mg/dL
  TOTAL PROTEIN: 5.6 G/DL
  URIC ACID: 1.15 mg/dL
